Measured values: publication PMC11613437, “Prioritization of Eleven-Nineteen-Leukemia Inhibitors as Orally Available Drug Candidates for Acute Myeloid Leukemia” (Journal of Medicinal Chemistry, 2024)
Where two headings read alike, the source gives them in different places.

Columns and labels:
[1] = target: T1, NLuc-ENL YEATS fusion protein (Homo sapiens, UniProt Q03111); assay: NanoBRET apparent tracer affinity; format: cell-based; details: HEK293T cells
T1 construct: DNA encoding the ENL YEATS domain (aa 1–148) was cloned into an NLuc containing plasmid; expressed in transfected cells
T1 sequence (Q03111 1-148): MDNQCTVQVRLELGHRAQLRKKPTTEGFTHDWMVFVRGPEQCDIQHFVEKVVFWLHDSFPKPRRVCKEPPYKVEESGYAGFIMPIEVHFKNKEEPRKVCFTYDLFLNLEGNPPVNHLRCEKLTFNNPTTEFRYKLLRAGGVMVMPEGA
Method: (§1) Approximately 1.8 × 10^4 HEK293T cells (100 μL) stably expressing NLuc-ENL YEATS were seeded into a white nonbinding 96-well assay plate and incubated overnight at 37 °C in a humidified 5% CO2 atmosphere. After removal of the medium, the cells were added with a tracer (with or without excess of unlabeled compound) in the Opti-MEM with 0.1% DMSO. After incubation at 37 °C for 2 h the assay plate was equilibrated at room temperature for 15 min. For BRET detection, the NanoGlo Substrate and the extracellular NanoLuc inhibitor (Promega, N2160) were diluted with Opti-MEM as described in protocol to afford detection solution. 50 μL of the detection solution was added per well and the plate was incubated for 3 min at room temperature. The donor emission was measured at 450 nm and the acceptor emission at 610 nm using a BioTek SYNERGY neo2 multimode reader. The BRET ratio was calculated according to the following formula: BRET ratio = [(acceptorsample/donorsample) – (acceptorno-tracer control/donorno-tracer control)] × 1000.

[2] = target: T2, ENL YEATS domain (Homo sapiens, UniProt Q03111); details: cited from earlier work
T2 construct: Biotinylated-ENL YEATS was immobilized onto SSA biosensors; biotin (biotinylated)
T2 sequence (Q03111 1-138 limits assumed): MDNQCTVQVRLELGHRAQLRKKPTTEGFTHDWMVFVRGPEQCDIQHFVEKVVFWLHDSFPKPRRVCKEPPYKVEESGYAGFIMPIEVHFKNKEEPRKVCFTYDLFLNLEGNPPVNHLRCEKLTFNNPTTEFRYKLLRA

[3] = target: T3, ENL YEATS (Homo sapiens, UniProt Q03111); assay: AlphaScreen assay with biotinylated ENL-S1 peptide; details: inhibition of ENL YEATS binding to ENL-S1 peptide; mean ± SD, n = 3; read-out: Alpha IC50 (nM) for ENL YEATS
T3 construct: final concentrations of 100 nM His-ENL YEATS, 100 nM Biotin-ENL-S1
T3 sequence (Q03111 1-138 limits assumed): T2 sequence (Q03111 1-138 limits assumed)
Method: The AlphaScreen assay was carried out in 384-well plates. Manual assay setup was performed in a 40 μL reaction buffer (50 mM HEPES pH 7.4, 100 mM NaCl, 0.1% bovine serum albumin, and 0.05% CHAPS) with final concentrations of 100 nM His-ENL YEATS, 100 nM Biotin-ENL-S1, and 20 μg/mL of AlphaScreen donor and acceptor beads. The protein, peptide, and compounds were mixed and incubated for 1 h at room temperature and then incubated for 30 min in dark after adding the α beads. AlphaScreen-signals were detected by a multimode microplate reader (BioTeK Synergy Neo2) equipped with an Alpha-laser (PerkinElmer).

[4] = target: T2, ENL YEATS domain; assay: Biolayer interferometry (BLI); format: binding; details: biotinylated ENL YEATS on SSA biosensors, 1:1 model
Method: Superstreptavidin biosensors were first incubated in an assay buffer (20 mM Tris, pH 7.8, 300 mM NaCl, 0.05% Tween 20, 0.1% DMSO) for 15 min. Sensors were coated with 40–60 μg/mL of biotinylated ENL for 15 min at room temperature. Inhibitors were serially diluted across a 96-well plate in a volume of 200 μL. Association of samples to either ENL- or uncoated reference sensors was measured over 300 s and dissociation over 300 s with baseline measurements (buffer only) for 300 s. All assays were run with continuous 1000 rpm shaking. Data were analyzed using the OctetRED data analysis software with reference subtraction in which reference uncoated sensors and reference samples were subtracted. Then, global kinetic fit was performed for all sonogram curves with a 1:1 model to get KD values.

[5] = target: T4, NLuc-ENL YEATS (Homo sapiens, UniProt Q03111); assay: ENL-NanoBRET inhibitor competitive assay; format: cell-based; details: HEK293T cells stably expressing NLuc-ENL YEATS, 1 μM Tracer 2, 2 h; mean ± SD, n = 3
T4 construct: DNA encoding the ENL YEATS domain (aa 1–148) was cloned into an NLuc containing plasmid; expressed in transfected cells
T4 sequence (Q03111 1-148): T1 sequence (Q03111 1-148)
Method: as §1
Sample procedures were followed for cell seeding as described in the previously described tracer affinity assay. After removal of the medium, the cells were added with a tracer in the medium (1.1 μM, 100 μL) and varied concentrations of a test compound in 0.1% DMSO (10 μL). The plate was thoroughly mixed on an orbital shaker for 15 s at 900 rpm. Then the cells were incubated at 37 °C, 5% CO2 for 2 h for BRET ratio detection as described previously.

[6] = Log D at pH 7.4 (chromatographic procedure); format: physicochemical; details: n-octanol / aqueous buffer pH 7.4, pH 7.4
Method: Log D at 7.4, which is a partition coefficient between n-octanol and aqueous buffer pH 7.4 of the compounds was measured on the chromatographic procedure whose condition was developed based on a published method.[35]

[7] = In vitro stability assay in human plasma; format: in vitro ADME; details: 37 °C
Method: The in vitro stability analysis of a test compound was initiated by the addition of the test compound to 90 μL of prewarmed (37 °C) human plasma with a final concentration of 5 μM. All assays were performed in a plate shaker at 37 °C and conducted in triplicate. At 0, 5, 15, 30, 60, and 120 min, 400 μL acetonitrile (with the internal standard diclofenac as 10 μg/mL) was added to deproteinize the plasma and terminate the reaction, the remaining compound was then analyzed by HPLC-MS/MS.

[8] = In vitro metabolic stability assay in HLM; format: in vitro ADME, human
Method: At 0, 5, 15, 30, 45, and 60 min, 200 μL acetonitrile (with the internal standard diclofenac as 10 μg/mL) was added to terminate the reaction, the remaining compound was analyzed by HPLC-MS/MS.

[9] = Cell toxicity assay (CCK-8), MOLM-13; format: cell-based; details: human, MOLM-13 cells, 8 day treatment, n = 3; read-out: CC50 MOLM-13 (Cellular IC50, 8-days incubation)
Method: (§2) Approximately 1 × 10^4 JURKAT, MOLM-13, MV4-11 and HEK293T cells in RPMI 1640 (no phenol red) (100 μL) were added to a 96-well plate and treated with DMSO or a compound at indicated concentrations for 72 h or 8 days. Cell viability was measured using the CCK-8 kit (Abcam, ab228554) according to the manufacturer’s instructions.

[10] = tested on: MOLM-13 cells; assay: Cell toxicity assay (CCK-8), MOLM-13; format: cell-based; details: 8 day treatment, n = 3; read-out: CC50 MOLM-13 (Cellular IC50, 8-days incubation)
Method: as §2

[11] = Cell toxicity assay (CCK-8), MV4-11; format: cell-based; details: human, MV4-11 cells, 8 day treatment, n = 3; read-out: CC50 MV4-11 (Cellular IC50, 8-days incubation)
Method: as §2

[12] = tested on: MV4-11 cells; assay: Cell toxicity assay (CCK-8), MV4-11; format: cell-based; details: 8 day treatment, n = 3; read-out: CC50 MV4-11 (Cellular IC50, 8-days incubation)
Method: as §2

[13] = Cell toxicity assay (CCK-8), Jurkat; format: cell-based; details: human, Jurkat cells; 8 day treatment, n = 3; read-out: CC50 Jurkat (Cellular IC50, 8-days incubation)
Method: as §2

[14] = Cell toxicity assay (CCK-8), HEK293T; format: cell-based; details: human, HEK293T cells; 72 h (3-days) treatment, n = 3; read-out: CC50 HEK293T (Cellular IC50, 3-days incubation)
Method: as §2

Compound: O=C(CCC1=[N+]2C(=Cc3ccc(-c4ccc[nH]4)n3[B-]2(F)F)C=C1)NCCCCSc1ccc(CNC(=O)c2ccc3nncn3c2)cc1 [Tracer 1, N-(4-((4-(3-(5,5-Difluoro-7-(1H-pyrrol-2-yl)-5H-4l4,5l4-dipyrrolo[1,2-c:2′,1′-f][1,3,2]diazaborinin-3-yl)propanamido)butyl)thio)benzyl)-[1,2,4]triazolo[4,3-a]pyridine-6-carboxamide]
- affinity profile of tracer for NLuc-ENL YEATS fusion protein ([1]; Figure S5a): limited affinity profile

Compound: H3K27cr peptide: commonly used biotinylated H3K27cr peptide for the AlphaScreen assay
- Kd [2]: 34 µM

Compound: C[C@H]1CCCN1Cc1cc2cnc(NC(=O)c3ccc4nncn4c3)cc2[nH]1 [YR-D-120, (S)-N-(2-((2-Methylpyrrolidin-1-yl)methyl)-1H-pyrrolo[3,2-c]pyridin-6-yl)-[1,2,4]triazolo [4,3-a]pyridine-6-carboxamide]
- IC50 [3]: 183 ± 25 nM
- Kd [4]: 645 nM
- IC50 [5]: 2.02 µM
- chromatographic logD [6]: 0.08
- degradation after 2 h incubation in human plasma [7]: approximately 15%
- Plasma % of parent compound remaining (after 2h incubation) ([7]; 5 μM, mean ± SD, n = 3): 83.10 ± 3.49%
- CLint scaled at 1 h ([8]; human, human liver microsomes, pH 7.4, HLM 0.5 mg/mL, NADPH 1 mM, mean ± SD, n = 3, read-out: Liver Microsome CLint, pred): 4.76 mL/min/kg
- half-life at 1 h ([8]; human, human liver microsomes, pH 7.4, HLM 0.5 mg/mL, NADPH 1 mM, mean ± SD, n = 3, read-out: Liver Microsome t1/2): 6.15 ± 0.582 h
- parent compound remaining after 60 min incubation in HLM ([8]; in the presence of NADPH, 60 min): over 90%
- IC50 at 8 days [9]: < 4 µM
- IC50 [10]: 3.61 ± 0.49 µM
- IC50 at 8 days [11]: < 4 µM
- IC50 [12]: 3.28 ± 0.65 µM
- IC50 at 8 days [13]: > 64 µM
- IC50 at 72 h [14]: > 64 µM

Compound: O=C(CCC1=[N+]2C(=Cc3ccc(-c4ccc[nH]4)n3[B-]2(F)F)C=C1)NCCCC(=O)Nc1cccc(-c2cn3cc(C(=O)NC4CCC4)ccc3n2)c1 [Tracer 2, N-Cyclobutyl-2-(3-(4-(3-(5,5-difluoro-7-(1H-pyrrol-2-yl)-5H-4l4,5l4-dipyrrolo[1,2-c:2′,1′-f][1,3,2]diazaborinin-3yl)propanamido)butanamido)phenyl)imidazo[1,2-a]pyridine-6-carboxamide]
- EC50 ([1]; nonspecific signal removed with 80 μM unlabeled compound 20): 1.46 µM
